EC50 data for 4 compounds are collected here from patent US12421242B2, “Substituted tetrahydropyrrolo-pyridinone compounds and their use in treating medical conditions” (Karuna Therapeutics, Inc., priority 2022, dated 2025).

Where only a bound is given, the exact number is not on record here.

For one test, the target named is T1, hM4 receptors (Homo sapiens, UniProt P08173).
T1 construct: expressed in transfected cells; host or cells: CHO cells
T1 sequence (P08173 1-479): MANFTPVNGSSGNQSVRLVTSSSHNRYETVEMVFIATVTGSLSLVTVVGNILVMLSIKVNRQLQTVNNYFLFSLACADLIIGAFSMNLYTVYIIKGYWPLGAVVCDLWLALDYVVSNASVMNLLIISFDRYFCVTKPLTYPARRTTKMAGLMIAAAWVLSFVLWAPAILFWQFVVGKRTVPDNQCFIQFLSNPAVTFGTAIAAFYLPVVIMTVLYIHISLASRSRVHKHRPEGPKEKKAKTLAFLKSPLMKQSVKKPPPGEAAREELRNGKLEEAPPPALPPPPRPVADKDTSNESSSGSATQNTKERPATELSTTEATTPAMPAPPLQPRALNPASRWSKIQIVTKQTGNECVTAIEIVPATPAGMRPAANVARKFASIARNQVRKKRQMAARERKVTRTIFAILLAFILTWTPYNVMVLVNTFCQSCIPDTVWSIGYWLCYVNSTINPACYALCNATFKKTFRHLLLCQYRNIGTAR
In words: Human M4 PAM pERK assay. Format: cell-based. The note with it: PAM mode. The essentials:
(§1)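 CHO cells expressing hM4 or rM4 were serum-starved 4 h, then given compound (ten-point curve, 10 μM top, duplicate) with an EC20 of acetylcholine (10 nM final) for 5 min at 37° C. Phospho-ERK in lysates was detected by TR-FRET.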

Another test has as its target T2, rM4 receptors (Rattus norvegicus, UniProt P08485).
T2 construct: expressed in transfected cells; host or cells: CHO cells
T2 sequence (P08485 1-478): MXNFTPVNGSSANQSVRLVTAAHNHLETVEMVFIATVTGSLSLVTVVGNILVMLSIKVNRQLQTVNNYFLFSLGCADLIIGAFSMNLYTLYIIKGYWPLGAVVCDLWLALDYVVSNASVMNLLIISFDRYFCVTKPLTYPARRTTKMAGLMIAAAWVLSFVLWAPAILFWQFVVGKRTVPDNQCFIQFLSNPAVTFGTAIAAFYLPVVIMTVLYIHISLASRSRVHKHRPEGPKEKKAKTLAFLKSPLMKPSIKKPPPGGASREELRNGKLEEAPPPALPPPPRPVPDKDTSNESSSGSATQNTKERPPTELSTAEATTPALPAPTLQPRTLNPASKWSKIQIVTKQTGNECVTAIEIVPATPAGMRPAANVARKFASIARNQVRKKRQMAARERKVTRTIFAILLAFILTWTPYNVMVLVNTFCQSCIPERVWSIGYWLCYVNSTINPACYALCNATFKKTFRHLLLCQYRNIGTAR
The test is described as follows: Rat M4 PAM pERK assay. Format: cell-based. The settings on record: PAM mode. A digest of the protocol:
as §1

The next test has as its target T3, human M4 receptor (Homo sapiens, UniProt P08173).
T3 construct: expressed in transfected cells
T3 sequence (P08173 1-479): T1 sequence (P08173 1-479)
In words: M4 GTPγS PAM assay. Format: biochemical. The settings on record: CHO-K1 membranes expressing human M4, with EC20 acetylcholine (40 nM). The essentials:
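Membranes from CHO-K1 cells stably expressing human M4 preincubated 10-15 min with compound in HEPES/MgCl2/NaCl buffer with 0.1 µM GDP, then with EC20 acetylcholine (40 nM) for 10-15 min. [35S]GTPγS added for 1 h at room temperature; filter-bound radioactivity counted by scintillation.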

A word on the EC50: it is the concentration at which the effect is half-maximal. Low values mean higher potency in that assay, high ones lower potency in that assay.

On to `Cc1cc(=O)n(C)c2c1[C@@H](C)N(C(=O)c1ccc3nc(C4CC4)sc3c1)C2` [Compound I-103], for which the EC50 is 100 to 500 nM on hM4 receptors, 500 to 2000 nM on rM4 receptors and more than 2000 nM on human M4 receptor.

For the compound `Cc1c2c(n(C)c(=O)c1Cl)C(C)N(C(=O)c1cnn(C(F)(F)F)c1)C2` (stereo not drawn) [Compound I-109], the EC50 at hM4 receptors is 500 to 2000 nM; at rM4 receptors, more than 2000 nM; at human M4 receptor, more than 2000 nM.

Take `Cc1c2c(n(C)c(=O)c1C)CN(C(=O)c1cnn(C(F)(F)F)c1)C2` [Compound I-112]: the concentration giving a half-maximal response (EC50) is less than 100 nM at hM4 receptors, more than 2000 nM at rM4 receptors and 100 to 500 nM on human M4 receptor.

Regarding `Cc1c2c(n(C)c(=O)c1F)CN(C(=O)c1cnn(C(F)(F)F)c1)C2` [Compound I-113, 3-Fluoro-1,4-dimethyl-6-(1-(trifluoromethyl)-1H-pyrazole-4-carbonyl)-1,5,6,7-tetrahydro-2H-pyrrolo[3,4-b]pyridin-2-one], the concentration giving a half-maximal response (EC50) is less than 100 nM on hM4 receptors, more than 2000 nM on rM4 receptors and 500 to 2000 nM on human M4 receptor.
